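The compound was tested at five concentrations on cells cultured in 96-well plates, with a 48-hour exposure period. At the GI50, growth is halved. TGI denotes the concentration required for complete inhibition of growth.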
Assays:
Assay in all cases: NCI tumour cell line growth inhibition, 48 h
A549 NSCLC = system: A549 NSCLC
HOP-62 NSCLC = system: HOP-62 NSCLC
IGROV1 ovarian = system: IGROV1 ovarian
M14 melanoma = system: M14 melanoma
MDA-MB-435 = system: MDA-MB-435
MDA-N = system: MDA-N
MOLT-4 leukemia = system: MOLT-4 leukemia
RXF 393 renal = system: RXF 393 renal
SF-268 CNS = system: SF-268 CNS
SNB-19 CNS = system: SNB-19 CNS
SW-620 colon = system: SW-620 colon
TK-10 renal = system: TK-10 renal

## COc1ccc2c(c1)-c1c(c3ccccc3n1CCN1CCCCC1)CC2
A549 NSCLC
  TGI: > 88.9 µM
HOP-62 NSCLC
  TGI: > 63.1 µM
IGROV1 ovarian
  TGI: 41.9 µM
M14 melanoma
  TGI: > 55.8 µM
MDA-MB-435
  TGI: 73.2 µM
MDA-N
  TGI: 67.5 µM
MOLT-4 leukemia
  TGI: 47.4 µM
RXF 393 renal
  TGI: > 100 µM
SF-268 CNS
  TGI: > 95.5 µM
SNB-19 CNS
  TGI: 66.4 µM
SW-620 colon
  TGI: 81.2 µM
TK-10 renal
  TGI: 54.6 µM

## C/C(=C\c1csc(C)n1)[C@@H]1C[C@@H]2O[C@]2(C)CCC[C@H](C)[C@H](O)[C@@H](C)C(=O)C(C)(C)[C@@H](O)CC(=O)O1 (tested in a mixture with another compound)
A549 NSCLC
  TGI: > 1 µM
HOP-62 NSCLC
  TGI: > 1 µM
IGROV1 ovarian
  TGI: > 1 µM
M14 melanoma
  TGI: > 1 µM
MDA-MB-435
  TGI: 0.00284 µM
MDA-N
  TGI: 0.00205 µM
MOLT-4 leukemia
  TGI: > 0.307 µM
RXF 393 renal
  TGI: 0.0211 µM
SF-268 CNS
  TGI: > 1 µM
SNB-19 CNS
  GI50: 25 nM
  TGI: > 1 µM
SW-620 colon
  TGI: > 1 µM
TK-10 renal
  TGI: > 1 µM

## O=c1oc2ccccc2c(O)c1C(c1ccc2ccccc2c1)c1c(O)c2ccccc2oc1=O
A549 NSCLC
  TGI: > 100 µM
HOP-62 NSCLC
  TGI: > 100 µM
IGROV1 ovarian
  TGI: 90.3 µM
M14 melanoma
  TGI: 73.2 µM
MDA-MB-435
  TGI: 59.7 µM
MDA-N
  TGI: 68.9 µM
MOLT-4 leukemia
  TGI: 55.1 µM
RXF 393 renal
  TGI: > 100 µM
SF-268 CNS
  TGI: 50.8 µM
SNB-19 CNS
  TGI: > 100 µM
SW-620 colon
  TGI: 87.7 µM
TK-10 renal
  TGI: > 100 µM

## COCC1OCCN1C (stereo not given)
A549 NSCLC
  TGI: > 100 µM
HOP-62 NSCLC
  TGI: > 100 µM
IGROV1 ovarian
  TGI: > 100 µM
M14 melanoma
  TGI: > 100 µM
MDA-MB-435
  TGI: > 100 µM
MDA-N
  TGI: > 100 µM
MOLT-4 leukemia
  TGI: > 100 µM
RXF 393 renal
  TGI: > 100 µM
SF-268 CNS
  TGI: > 100 µM
SNB-19 CNS
  TGI: > 100 µM
SW-620 colon
  TGI: > 100 µM
TK-10 renal
  TGI: > 100 µM

## C=C1[C@H](OCC(C)C)[C@@H](OCC(C)C)[C@@H](O)C(C)(C)/C=C/[C@H](C)C(=O)[C@@]2(O)C[C@H](C)[C@H](O)[C@@H]2[C@H]1OCC(C)C
HOP-62 NSCLC
  TGI: > 7.5 µM
M14 melanoma
  TGI: > 7.5 µM
MDA-MB-435
  TGI: > 7.5 µM
MDA-N
  TGI: > 7.5 µM
MOLT-4 leukemia
  TGI: > 7.5 µM
RXF 393 renal
  TGI: > 7.5 µM
SF-268 CNS
  TGI: > 7.5 µM
SNB-19 CNS
  TGI: > 7.5 µM
SW-620 colon
  TGI: > 7.5 µM
TK-10 renal
  TGI: > 7.5 µM

## Cc1cc(Cl)ccc1NC(=O)/C(CC(=O)CC(c1ccccc1)c1c(O)c2ccccc2oc1=O)=N\O (stereo not given)
A549 NSCLC
  TGI: > 100 µM
HOP-62 NSCLC
  TGI: > 100 µM
IGROV1 ovarian
  TGI: > 100 µM
M14 melanoma
  TGI: > 100 µM
MDA-MB-435
  TGI: > 100 µM
MDA-N
  TGI: > 100 µM
MOLT-4 leukemia
  TGI: > 100 µM
RXF 393 renal
  TGI: > 100 µM
SF-268 CNS
  TGI: > 100 µM
SNB-19 CNS
  TGI: > 100 µM
SW-620 colon
  TGI: > 100 µM
TK-10 renal
  TGI: > 100 µM

## c1ccc2c(OCC3CO3)ccc(OCC3CO3)c2c1 (stereo not given)
A549 NSCLC
  TGI: 16.9 µM
HOP-62 NSCLC
  TGI: 10.9 µM
IGROV1 ovarian
  TGI: 16 µM
M14 melanoma
  TGI: 13.3 µM
MDA-MB-435
  TGI: 7.74 µM
MDA-N
  TGI: 13 µM
MOLT-4 leukemia
  TGI: 2.99 µM
RXF 393 renal
  TGI: 7.71 µM
SF-268 CNS
  TGI: 12.1 µM
SNB-19 CNS
  TGI: 21 µM
SW-620 colon
  TGI: 4.03 µM
TK-10 renal
  TGI: 26.7 µM

## COc1ccc(OC)c2c(=O)cc(-c3ccccc3)[nH]c12
A549 NSCLC
  TGI: > 100 µM
HOP-62 NSCLC
  TGI: > 100 µM
IGROV1 ovarian
  TGI: > 100 µM
M14 melanoma
  TGI: > 100 µM
MDA-MB-435
  TGI: > 100 µM
MDA-N
  TGI: > 100 µM
MOLT-4 leukemia
  TGI: > 100 µM
RXF 393 renal
  TGI: > 100 µM
SF-268 CNS
  TGI: > 100 µM
SNB-19 CNS
  TGI: > 100 µM
SW-620 colon
  TGI: > 100 µM
TK-10 renal
  TGI: > 100 µM

## O=c1[nH]c2nccn2c(Cl)c1Br
A549 NSCLC
  TGI: > 100 µM
HOP-62 NSCLC
  TGI: > 100 µM
IGROV1 ovarian
  TGI: 45.4 µM
M14 melanoma
  TGI: 34.5 µM
MDA-MB-435
  TGI: 42 µM
MDA-N
  TGI: 45.8 µM
MOLT-4 leukemia
  TGI: 42.6 µM
RXF 393 renal
  TGI: 20.8 µM
SF-268 CNS
  TGI: 49.1 µM
SNB-19 CNS
  TGI: 70.5 µM
SW-620 colon
  TGI: 60.1 µM
TK-10 renal
  TGI: > 100 µM

## COc1ccc(-c2cc(=O)c3c(O)c(OC)c(O)cc3o2)cc1O
A549 NSCLC
  TGI: > 100 µM
HOP-62 NSCLC
  TGI: > 100 µM
IGROV1 ovarian
  TGI: 40.2 µM
M14 melanoma
  TGI: > 75 µM
MDA-MB-435
  TGI: > 100 µM
MDA-N
  TGI: > 100 µM
MOLT-4 leukemia
  TGI: 20.7 µM
RXF 393 renal
  TGI: > 64.8 µM
SF-268 CNS
  TGI: > 100 µM
SNB-19 CNS
  TGI: > 100 µM
SW-620 colon
  TGI: > 100 µM
TK-10 renal
  TGI: > 100 µM

## CC(=O)/C(=C/N1C(=O)CC(=O)NC1=S)C(=O)Nc1ccccc1C
A549 NSCLC
  TGI: > 100 µM
HOP-62 NSCLC
  TGI: 64.2 µM
IGROV1 ovarian
  TGI: > 100 µM
M14 melanoma
  TGI: > 100 µM
MDA-MB-435
  TGI: > 100 µM
MDA-N
  TGI: > 100 µM
MOLT-4 leukemia
  TGI: > 100 µM
RXF 393 renal
  TGI: > 100 µM
SF-268 CNS
  TGI: > 100 µM
SNB-19 CNS
  TGI: > 100 µM
SW-620 colon
  TGI: 93.9 µM
TK-10 renal
  TGI: > 100 µM

## Cc1nn(-c2ccccc2)c2nc3c(c(C)nn3-c3ccccc3)c(-c3ccccc3Br)c12
A549 NSCLC
  TGI: > 100 µM
HOP-62 NSCLC
  TGI: > 100 µM
IGROV1 ovarian
  TGI: > 100 µM
M14 melanoma
  TGI: > 100 µM
MDA-MB-435
  TGI: > 100 µM
MDA-N
  TGI: > 100 µM
MOLT-4 leukemia
  TGI: > 100 µM
RXF 393 renal
  TGI: > 100 µM
SF-268 CNS
  TGI: > 100 µM
SNB-19 CNS
  TGI: > 100 µM
SW-620 colon
  TGI: > 100 µM
TK-10 renal
  TGI: > 100 µM

## CC(C(O)c1ccccc1)N(C)/N=N/c1nc2c([nH]1)c(=O)n(C)c(=O)n2C (stereo not given)
A549 NSCLC
  TGI: > 100 µM
HOP-62 NSCLC
  TGI: > 100 µM
IGROV1 ovarian
  TGI: > 100 µM
M14 melanoma
  TGI: > 100 µM
MDA-MB-435
  TGI: > 100 µM
MDA-N
  TGI: > 100 µM
MOLT-4 leukemia
  TGI: > 100 µM
RXF 393 renal
  TGI: > 100 µM
SF-268 CNS
  TGI: > 100 µM
SNB-19 CNS
  TGI: > 100 µM
SW-620 colon
  TGI: > 100 µM
TK-10 renal
  TGI: > 100 µM

## CCCOc1ccc(/C=C/C2=[N+](CCO)CCO2)cc1
A549 NSCLC
  TGI: > 100 µM
HOP-62 NSCLC
  TGI: > 100 µM
IGROV1 ovarian
  TGI: > 100 µM
M14 melanoma
  TGI: > 100 µM
MDA-MB-435
  TGI: > 100 µM
MDA-N
  TGI: > 100 µM
MOLT-4 leukemia
  TGI: > 100 µM
RXF 393 renal
  TGI: > 100 µM
SF-268 CNS
  TGI: > 100 µM
SNB-19 CNS
  TGI: > 100 µM
SW-620 colon
  TGI: > 100 µM
TK-10 renal
  TGI: > 100 µM

## CC(C)CC(=O)OC[n+]1cccc(-c2c(COC(=O)NC(C)C)c(COC(=O)NC(C)C)c3n2CCC3)c1
A549 NSCLC
  TGI: > 100 µM
HOP-62 NSCLC
  TGI: > 100 µM
IGROV1 ovarian
  TGI: > 100 µM
M14 melanoma
  TGI: > 100 µM
MDA-MB-435
  TGI: > 100 µM
MDA-N
  TGI: > 100 µM
MOLT-4 leukemia
  TGI: > 100 µM
RXF 393 renal
  TGI: > 100 µM
SF-268 CNS
  TGI: > 100 µM
SNB-19 CNS
  TGI: > 100 µM
SW-620 colon
  TGI: > 100 µM
TK-10 renal
  TGI: > 100 µM

## Cc1ccc(-c2cnc(NC3OC(COC(=O)c4ccccc4)C(OC(=O)c4ccccc4)C(OC(=O)c4ccccc4)C3OC(=O)c3ccccc3)s2)cc1 (stereo not given)
A549 NSCLC
  TGI: > 100 µM
HOP-62 NSCLC
  TGI: > 100 µM
IGROV1 ovarian
  TGI: > 100 µM
M14 melanoma
  TGI: > 100 µM
MDA-MB-435
  TGI: > 100 µM
MDA-N
  TGI: > 100 µM
MOLT-4 leukemia
  TGI: > 100 µM
RXF 393 renal
  TGI: > 100 µM
SF-268 CNS
  TGI: > 100 µM
SNB-19 CNS
  TGI: > 100 µM
SW-620 colon
  TGI: > 100 µM
TK-10 renal
  TGI: > 100 µM

## CCC1=NC(N/N=C/c2ccccc2O)=N/C1=C\c1ccccc1O
A549 NSCLC
  TGI: > 100 µM
HOP-62 NSCLC
  TGI: 39.2 µM
IGROV1 ovarian
  TGI: 56.9 µM
M14 melanoma
  TGI: 51.9 µM
MDA-MB-435
  TGI: > 81.2 µM
MDA-N
  TGI: > 100 µM
MOLT-4 leukemia
  TGI: > 61.5 µM
RXF 393 renal
  TGI: > 73.4 µM
SF-268 CNS
  TGI: > 66.9 µM
SNB-19 CNS
  TGI: > 100 µM
SW-620 colon
  TGI: > 100 µM
TK-10 renal
  TGI: > 54.6 µM

## COc1ccc2cc(CNCCCN3CCN(CCCNCc4ccc5cc(OC)ccc5c4)CC3)ccc2c1
A549 NSCLC
  TGI: 3.31 µM
HOP-62 NSCLC
  TGI: 3.13 µM
IGROV1 ovarian
  TGI: 3.12 µM
M14 melanoma
  TGI: 3.01 µM
MDA-MB-435
  TGI: 2.99 µM
MDA-N
  TGI: 2.78 µM
MOLT-4 leukemia
  TGI: 5.72 µM
RXF 393 renal
  TGI: 2.85 µM
SF-268 CNS
  TGI: 3.32 µM
SNB-19 CNS
  TGI: 3.18 µM
SW-620 colon
  TGI: 0.982 µM
TK-10 renal
  TGI: 3.3 µM

Source: PubChem BioAssay (NCI)
